Results on 29 molecules are retold here after US20170057955A1, “Pyridopyrimidinone Compounds for Modulating the Catalytic Activity of Histone Lysine Demethylases (KDMs)” (Dong-A Socio Holdings Co., Ltd., priority 2015, published 2017).

T1 sequence (Q9UGL1 whole entry): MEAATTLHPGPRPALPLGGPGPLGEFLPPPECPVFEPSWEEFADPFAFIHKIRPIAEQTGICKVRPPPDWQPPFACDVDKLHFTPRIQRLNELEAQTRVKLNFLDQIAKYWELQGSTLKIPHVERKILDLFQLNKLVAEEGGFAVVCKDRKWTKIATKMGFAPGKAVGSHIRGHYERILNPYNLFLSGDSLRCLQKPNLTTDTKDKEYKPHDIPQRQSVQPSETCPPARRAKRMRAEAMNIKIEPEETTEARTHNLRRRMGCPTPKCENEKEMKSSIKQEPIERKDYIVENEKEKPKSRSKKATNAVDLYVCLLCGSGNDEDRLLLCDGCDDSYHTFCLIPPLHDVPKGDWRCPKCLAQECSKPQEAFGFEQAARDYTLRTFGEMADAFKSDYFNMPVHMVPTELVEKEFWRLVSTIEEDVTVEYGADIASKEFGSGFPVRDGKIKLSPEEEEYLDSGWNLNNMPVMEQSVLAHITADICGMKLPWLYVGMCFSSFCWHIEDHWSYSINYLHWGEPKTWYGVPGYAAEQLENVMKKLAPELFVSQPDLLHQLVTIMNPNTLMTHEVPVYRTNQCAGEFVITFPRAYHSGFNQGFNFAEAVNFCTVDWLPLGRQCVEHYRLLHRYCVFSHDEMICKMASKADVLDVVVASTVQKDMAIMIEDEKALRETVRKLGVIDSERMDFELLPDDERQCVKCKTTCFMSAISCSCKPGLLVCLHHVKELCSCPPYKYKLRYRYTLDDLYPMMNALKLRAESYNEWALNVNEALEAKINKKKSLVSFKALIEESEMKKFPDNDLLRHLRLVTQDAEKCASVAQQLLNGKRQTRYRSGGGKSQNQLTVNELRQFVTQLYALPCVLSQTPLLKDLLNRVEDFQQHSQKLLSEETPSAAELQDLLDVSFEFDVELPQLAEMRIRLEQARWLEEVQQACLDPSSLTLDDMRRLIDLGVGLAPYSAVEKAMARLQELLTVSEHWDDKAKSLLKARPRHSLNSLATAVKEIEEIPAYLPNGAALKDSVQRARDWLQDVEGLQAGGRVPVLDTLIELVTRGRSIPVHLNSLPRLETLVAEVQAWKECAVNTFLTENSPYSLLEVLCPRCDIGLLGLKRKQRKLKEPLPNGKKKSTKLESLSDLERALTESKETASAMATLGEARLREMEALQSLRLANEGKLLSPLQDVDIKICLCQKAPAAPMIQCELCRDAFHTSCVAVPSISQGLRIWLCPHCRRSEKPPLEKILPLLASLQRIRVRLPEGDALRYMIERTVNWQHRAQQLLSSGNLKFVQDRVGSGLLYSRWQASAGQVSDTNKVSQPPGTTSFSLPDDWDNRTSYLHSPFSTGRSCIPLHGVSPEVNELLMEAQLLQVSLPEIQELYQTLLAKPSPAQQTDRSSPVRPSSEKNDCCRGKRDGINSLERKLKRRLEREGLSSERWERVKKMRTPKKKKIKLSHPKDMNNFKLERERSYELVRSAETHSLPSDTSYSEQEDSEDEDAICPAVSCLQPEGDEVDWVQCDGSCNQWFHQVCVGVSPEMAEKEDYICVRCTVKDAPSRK

This experiment addresses T1, Recombinant human JARID1B/KDM5B (Homo sapiens, UniProt Q9UGL1).
T1 construct: purchased Active Motif 31432; host or cells: Sf9 insect cells
The experiment is described as follows: LANCE Ultra TR-FRET JARID1B (KDM5B) demethylase inhibition assay. The experiment is classed as biochemical. To be noted: 0.1 uM of test-compounds, FLAG-JARID1B, 500 nM biotinylated H3K4me3 peptide substrate, 30 min at room temperature. The method in brief: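 FLAG-tagged JARID1B from Sf9 cells, pre-incubated 5 min with 0.1 uM compound (1% DMSO), then 500 nM biotinylated H3K4me3 peptide, 500 uM 2-OG, 25 uM Fe(II), 2 mM ascorbate in pH 7.5 Hepes buffer. After 30 min at room temperature, H3K4me2/1 product detected by TR-FRET (665/590 nm ratio).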
The inhibition is the relative decrease from the control value, in per cent. As for `CN1CCN(CCNc2nc(-c3nccc4c(=O)[nH]c(COc5ccc(F)c(Cl)c5)nc34)cs2)CC1` [Compound 89, 2-((3-chloro-4-fluorophenoxy)methyl)-8-(2-((2-(4-methylpiperazin-1-yl)ethyl)amino)thiazol-4-yl)pyrido[3,4-d]pyrimidin-4(3H)-one], the inhibition at 0.1 µM is not below 50%.

For the molecule `O=c1[nH]c(COc2ccc(F)c(Cl)c2)nc2c(-c3csc(NCCCO)n3)nccc12` [Compound 90, 2-((3-chloro-4-fluorophenoxy)methyl)-8-(2-((3-hydroxypropyl)amino)thiazol-4-yl)pyrido[3,4-d]pyrimidin-4(3H)-one], the inhibition at 0.1 µM is not below 50%.

Take `CN(C)CCCNc1nc(-c2nccc3c(=O)[nH]c(COc4ccc(F)c(Cl)c4)nc23)cs1` [Compound 91, 2-((3-chloro-4-fluorophenoxy)methyl)-8-(2-((3-(dimethylamino)propyl)amino)thiazol-4-yl)pyrido[3,4-d]pyrimidin-4(3H)-one]: the inhibition at 0.1 µM is not below 50%.

`CN1CCCC1CCNc1nc(-c2nccc3c(=O)[nH]c(COc4ccc(F)c(Cl)c4)nc23)cs1` (centres unmarked) [Compound 92, 2-((3-chloro-4-fluorophenoxy)methyl)-8-(2-((2-(1-methylpyrrolidin-2-yl)ethyl)amino)thiazol-4-yl)pyrido[3,4-d]pyrimidin-4(3H)-one]: the inhibition at 0.1 µM is not below 50%.

On to `O=c1[nH]c(COc2ccc(F)c(Cl)c2)nc2c(-c3csc(NC4CCNCC4)n3)nccc12` [Compound 93, 2-((3-chloro-4-fluorophenoxy)methyl)-8-(2-(piperidin-4-ylamino)thiazol-4-yl)pyrido[3,4-d]pyrimidin-4(3H)-one], for which the inhibition at 0.1 µM was not below 50%.

Turning to `CN1CCC(Nc2nc(-c3nccc4c(=O)[nH]c(COc5ccc(F)c(Cl)c5)nc34)cs2)CC1` [Compound 94, 2-((3-chloro-4-fluorophenoxy)methyl)-8-(2-((1-methylpiperidin-4-yl)amino)thiazol-4-yl)pyrido[3,4-d]pyrimidin-4(3H)-one], the inhibition at 0.1 µM is not below 50%.

Turning to `CCC(O)CNc1nc(-c2nccc3c(=O)[nH]c(COc4ccc(F)c(Cl)c4)nc23)cs1` (centres unmarked) [Compound 95, 2-((3-chloro-4-fluorophenoxy)methyl)-8-(2-((2-hydroxybutyl)amino)thiazol-4-yl)pyrido[3,4-d]pyrimidin-4(3H)-one], the inhibition at 0.1 µM was in the range of 20 to 50%.

Turning to `O=c1[nH]c(COc2ccc(F)c(Cl)c2)nc2c(-c3csc(NCC4CCN(Cc5ccccc5)CC4)n3)nccc12` [Compound 96, 8-(2-(((1-benzylpiperidin-4-yl)methyl)amino)thiazol-4-yl)-2-((3-chloro-4-fluorophenoxy)methyl) pyrido[3,4-d]pyrimidin-4(3H)-one], the inhibition at 0.1 µM is less than 20%.

In the case of `CC(C)N1CCC(CNc2nc(-c3nccc4c(=O)[nH]c(COc5ccc(F)c(Cl)c5)nc34)cs2)CC1` [Compound 97, 2-((3-chloro-4-fluorophenoxy)methyl)-8-(2-(((1-isopropylpiperidin-4-yl)methyl)amino)thiazol-4-yl)pyrido[3,4-d]pyrimidin-4(3H)-one], the inhibition at 0.1 µM was 20 to 50%.

Turning to `O=c1[nH]c(COc2ccc(F)c(Cl)c2)nc2c(-c3csc(NCC4CCN(C5CCCC5)CC4)n3)nccc12` [Compound 98, 2-((3-chloro-4-fluorophenoxy)methyl)-8-(2-(((1-cyclopentylpiperidin-4-yl)methyl)amino)thiazol-4-yl)pyrido[3,4-d]pyrimidin-4(3H)-one], the inhibition at 0.1 µM lay within 20 to 50%.

With `O=c1[nH]c(COc2ccc(F)c(Cl)c2)nc2c(-c3csc(NCC4CCNCC4)n3)nccc12` [Compound 99, 2-((3-chloro-4-fluorophenoxy)methyl)-8-(2-((piperidin-4-ylmethyl)amino)thiazol-4-yl)pyrido[3,4-d]pyrimidin-4(3H)-one], the inhibition at 0.1 µM was 20 to 50%.

Take `O=c1[nH]c(COc2ccc(F)c(Cl)c2)nc2c(-c3csc(NCC4CCN(CCO)CC4)n3)nccc12` [Compound 100, 2-((3-chloro-4-fluorophenoxy)methyl)-8-(2-(((1-(2-hydroxyethyl)piperidin-4-yl)methyl)amino)thiazol-4-yl)pyrido[3,4-d]pyrimidin-4(3H)-one]: the inhibition at 0.1 µM was in the range of 20 to 50%.

Turning to `COCCN1CCC(CNc2nc(-c3nccc4c(=O)[nH]c(COc5ccc(F)c(Cl)c5)nc34)cs2)CC1` [Compound 101, 2-((3-chloro-4-fluorophenoxy)methyl)-8-(2-(((1-(2-methoxyethyl)piperidin-4-yl)methyl)amino)thiazol-4-yl)pyrido[3,4-d]pyrimidin-4(3H)-one], the inhibition at 0.1 µM lay in the range of 20 to 50%.

On to `O=c1[nH]c(COc2ccc(F)c(Cl)c2)nc2c(-c3csc(NC4CCN(Cc5ccccc5)CC4)n3)nccc12` [Compound 102, 8-(2-((1-benzylpiperidin-4-yl)amino)thiazol-4-yl)-2-((3-chloro-4-fluorophenoxy)methyl) pyrido[3,4-d]pyrimidin-4(3H)-one], for which the inhibition at 0.1 µM is not below 50%.

`Cc1nc(-c2nccc3c(=O)[nH]c(COc4ccc(F)c(Cl)c4)nc23)cs1` [Compound 103, 2-((3-chloro-4-fluorophenoxy)methyl)-8-(2-methylthiazol-4-yl)pyrido[3,4-d]pyrimidin-4(3H)-one]: the inhibition at 0.1 µM was less than 20%.

Regarding `Nc1nc(-c2nccc3c(=O)[nH]c(COc4ccc(F)c(Cl)c4)nc23)cs1` [Compound 104, 8-(2-aminothiazol-4-yl)-2-((3-chloro-4-fluorophenoxy)methyl) pyrido[3,4-d]pyrimidin-4(3H)-one], the inhibition at 0.1 µM was 20 to 50%.

For `CCN(CC)c1nc(-c2nccc3c(=O)[nH]c(COc4ccc(F)c(Cl)c4)nc23)cs1` [Compound 105, 2-((3-chloro-4-fluorophenoxy)methyl)-8-(2-(diethylamino)thiazol-4-yl)pyrido[3,4-d]pyrimidin-4(3H)-one], the inhibition at 0.1 µM is less than 20%.

Consider `O=c1[nH]c(COc2ccc(F)c(Cl)c2)nc2c(-c3cscn3)nccc12` [Compound 106, 2-((3-chloro-4-fluorophenoxy)methyl)-8-(thiazol-4-yl)pyrido[3,4-d]pyrimidin-4(3H)-one], for which the inhibition at 0.1 µM was 20 to 50%.

As for `O=c1[nH]c(COc2ccc(F)c(Cl)c2)nc2c(-c3csc(NC4CCN(Cc5ccccc5)C4)n3)nccc12` (centres unmarked) [Compound 107, 8-(2-((1-benzylpyrrolidin-3-yl)amino)thiazol-4-yl)-2-((3-chloro-4-fluorophenoxy)methyl) pyrido[3,4-d]pyrimidin-4(3H)-one], the inhibition at 0.1 µM was 20 to 50%.

In the case of `O=c1[nH]c(COc2ccc(F)c(Cl)c2)nc2c(-c3csc(NCCc4ccc(Cl)c(Cl)c4)n3)nccc12` [Compound 108, 2-((3-chloro-4-fluorophenoxy)methyl)-8-(2-((3,4-dichlorophenethyl)amino)thiazol-4-yl)pyrido[3,4-d]pyrimidin-4(3H)-one], the inhibition at 0.1 µM is less than 20%.

Regarding `O=c1[nH]c(COc2ccc(F)c(Cl)c2)nc2c(-c3csc(NCCCc4ccccc4Cl)n3)nccc12` [Compound 109, 2-((3-chloro-4-fluorophenoxy)methyl)-8-(2-((3-(2-chlorophenyl)propyl)amino)thiazol-4-yl)pyrido[3,4-d]pyrimidin-4(3H)-one], the inhibition at 0.1 µM is less than 20%.

On to `O=c1[nH]c(COc2ccc(F)c(Cl)c2)nc2c(-c3csc(NCCc4ccccc4Oc4ccccc4)n3)nccc12` [Compound 110, 2-((3-chloro-4-fluorophenoxy)methyl)-8-(2-((2-phenoxyphenethyl)amino)thiazol-4-yl)pyrido[3,4-d]pyrimidin-4(3H)-one], for which the inhibition at 0.1 µM was less than 20%.

Take `O=c1[nH]c(COc2ccc(F)c(Cl)c2)nc2c(-c3csc(NCC(O)c4ccncc4)n3)nccc12` (centres unmarked) [Compound 111, 2-((3-chloro-4-fluorophenoxy)methyl)-8-(2-((2-hydroxy-2-(pyridin-4-yl)ethyl)amino)thiazol-4-yl)pyrido[3,4-d]pyrimidin-4(3H)-one]: the inhibition at 0.1 µM was in the range of 20 to 50%.

Take `Cc1ccc(CCNc2nc(-c3nccc4c(=O)[nH]c(COc5ccc(F)c(Cl)c5)nc34)cs2)cc1C` [Compound 112, 2-((3-chloro-4-fluorophenoxy)methyl)-8-(2-((3,4-dimethylphenethyl)amino)thiazol-4-yl)pyrido[3,4-d]pyrimidin-4(3H)-one]: the inhibition at 0.1 µM was less than 20%.

Turning to `O=c1[nH]c(COc2ccc(F)c(Cl)c2)nc2c(-c3csc(NCC(O)CN4CCNCC4)n3)nccc12` (centres unmarked) [Compound 113, 2-((3-chloro-4-fluorophenoxy)methyl)-8-(2-((2-hydroxy-3-(piperazin-1-yl)propyl)amino)thiazol-4-yl)pyrido[3,4-d]pyrimidin-4(3H)-one], the inhibition at 0.1 µM is not below 50%.

In the case of `O=c1[nH]c(COc2ccc(F)c(Cl)c2)nc2c(-c3cccc(Cl)n3)nccc12` [Compound 114, 2-((3-chloro-4-fluorophenoxy)methyl)-8-(6-chloropyridin-2-yl)pyrido[3,4-d]pyrimidin-4(3H)-one], the inhibition at 0.1 µM is less than 20%.

`CC1CCN(c2cccc(-c3nccc4c(=O)[nH]c(COc5ccc(F)c(Cl)c5)nc34)n2)CC1` [Compound 115, 2-((3-chloro-4-fluorophenoxy)methyl)-8-(6-(4-methylpiperidin-1-yl)pyridin-2-yl)pyrido[3,4-d]pyrimidin-4(3H)-one]: the inhibition at 0.1 µM was less than 20%.

For the molecule `O=c1[nH]c(COc2ccc(F)c(Cl)c2)nc2c(-c3cccc(N4CCOCC4)n3)nccc12` [Compound 116, 2-((3-chloro-4-fluorophenoxy)methyl)-8-(6-morpholinopyridin-2-yl)pyrido[3,4-d]pyrimidin-4(3H)-one], the inhibition at 0.1 µM was less than 20%.

In the case of `CCN(CC)CCCC(C)Nc1nc(-c2nccc3c(=O)[nH]c(COc4ccc(F)c(Cl)c4)nc23)cs1` (centres unmarked) [Compound 118, 2-((3-chloro-4-fluorophenoxy)methyl)-8-(2-((5-(diethylamino)pentan-2-yl)amino)thiazol-4-yl)pyrido[3,4-d]pyrimidin-4(3H)-one], the inhibition at 0.1 µM was in the range of 20 to 50%.
